# Results as given in patent CN113143900A, “Ml365在制备预防和/或治疗nlrp3炎症小体相关疾病的药物中的应用” (Southern Medical University, priority 2021, dated 2021).
# “Also recorded” adds a separate entry of the source.
# Assays:
# [1] = target: T1, human TWIK2 channel, functional mutant muTWIK2 Y308A/I289A/L290A [人源TWIK2-Y308A/I289A/L290A, muTWIK2] (Homo sapiens, UniProt Q9Y257, I289A/L290A/Y308A); experiment: Whole-cell patch clamp of transfected COS-7 cells, TWIK2 (muTWIK2) current; type: cell-based
# T1 construct: GFP (green fluorescent protein label of the plasmid); expressed in transfected cells; host or cells: COS-7
# T1 sequence (Q9Y257 1-313 I289A/L290A/Y308A): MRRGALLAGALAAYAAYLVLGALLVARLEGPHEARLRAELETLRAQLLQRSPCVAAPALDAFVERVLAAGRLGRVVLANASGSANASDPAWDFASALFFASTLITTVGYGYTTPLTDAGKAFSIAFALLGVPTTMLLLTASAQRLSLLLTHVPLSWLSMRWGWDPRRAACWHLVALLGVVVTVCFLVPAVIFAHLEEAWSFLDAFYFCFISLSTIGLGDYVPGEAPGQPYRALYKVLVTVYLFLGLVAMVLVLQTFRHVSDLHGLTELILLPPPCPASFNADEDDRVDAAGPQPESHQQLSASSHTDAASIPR
# [2] = system: NLRP3 inflammasome [NLRP3炎症小体]; experiment: ATP-induced NLRP3 inflammasome activation in BMDM after siRNA knockdown of TWIK2 (WB, ELISA); type: cell-based, mouse; conditions: ML365 5 μM (Fig. 11), TWIK2 siRNA 50 nM 48 h, LPS + ATP
# [3] = target: T2, human TWIK1 channel, functional mutant muTWIK1 I293/294A/K274E [人源TWIK1-I293/294A/K274E, muTWIK1] (Homo sapiens, UniProt O00180, I293A/I294A/K274E); experiment: Whole-cell patch clamp of transfected COS-7 cells, TWIK1 (muTWIK1) current; type: cell-based
# T2 construct: GFP (green fluorescent protein label of the plasmid); expressed in transfected cells; host or cells: COS-7
# T2 sequence (O00180 1-336 K274E/I293A/I294A): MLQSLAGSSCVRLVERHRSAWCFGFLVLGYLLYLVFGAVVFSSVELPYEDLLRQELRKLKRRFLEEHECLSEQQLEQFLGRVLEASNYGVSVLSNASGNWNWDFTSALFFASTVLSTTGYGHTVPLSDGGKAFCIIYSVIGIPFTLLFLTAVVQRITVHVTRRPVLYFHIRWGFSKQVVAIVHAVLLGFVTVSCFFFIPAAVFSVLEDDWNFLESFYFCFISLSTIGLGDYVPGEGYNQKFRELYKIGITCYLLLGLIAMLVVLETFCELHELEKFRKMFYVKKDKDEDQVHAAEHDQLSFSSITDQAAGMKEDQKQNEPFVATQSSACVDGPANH
# [4] = system: non-canonical inflammasome [非经典炎症小体]; experiment: Non-canonical inflammasome activation (Pam3CSK4 + transfected LPS), IL-1β ELISA; type: cell-based, mouse; conditions: ML365 5 μM (Fig. 9)
# [5] = system: TNF-α; experiment: TNF-α in supernatants of LPS + ATP treated BMDM, ELISA; type: cell-based, mouse; conditions: same supernatants
# [6] = system: NLRP3 inflammasome [NLRP3炎症小体]; experiment: ATP-induced IL-1β release from LPS-primed BMDM, ELISA; type: cell-based, mouse
# [7] = system: NLRP3 inflammasome [NLRP3炎症小体]; experiment: ATP-induced NLRP3 inflammasome activation in LPS-primed BMDM, Western blot (WB); type: cell-based, mouse
# [8] = target: T3, human THIK1 channel [人源THIK1, THIK1通道] (Homo sapiens, UniProt Q9HB14); experiment: Whole-cell patch clamp of transfected COS-7 cells, THIK1 current; type: cell-based
# T3 construct: GFP (green fluorescent protein label of the plasmid); expressed in transfected cells; host or cells: COS-7
# T3 sequence (Q9HB14 1-408): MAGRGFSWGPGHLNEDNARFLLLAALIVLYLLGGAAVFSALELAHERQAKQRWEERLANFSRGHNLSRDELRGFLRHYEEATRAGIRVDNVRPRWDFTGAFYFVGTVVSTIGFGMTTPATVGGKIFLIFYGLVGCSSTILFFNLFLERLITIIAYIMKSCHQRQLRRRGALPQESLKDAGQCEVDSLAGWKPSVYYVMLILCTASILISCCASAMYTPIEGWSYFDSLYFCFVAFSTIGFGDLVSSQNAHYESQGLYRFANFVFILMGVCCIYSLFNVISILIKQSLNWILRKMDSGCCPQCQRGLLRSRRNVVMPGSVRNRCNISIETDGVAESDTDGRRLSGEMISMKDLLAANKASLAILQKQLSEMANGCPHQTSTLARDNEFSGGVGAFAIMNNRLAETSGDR
# [9] = system: NLRP3 inflammasome [NLRP3炎症小体]; experiment: ATP- or Nigericin-induced NLRP3 inflammasome activation in human THP-1 macrophages; type: cell-based
# [10] = system: NLRP3 inflammasome [NLRP3炎症小体]; experiment: Nigericin-induced NLRP3 inflammasome activation in LPS-primed BMDM (WB, ELISA); type: cell-based, mouse
# [11] = system: NLRC4 inflammasome [NLRC4炎症小体]; experiment: NLRC4 inflammasome activation (Pam3CSK4 + Flagellin), IL-1β ELISA; type: cell-based, mouse; conditions: ML365 5 μM (Fig. 9)
# [12] = system: AIM2 inflammasome [AIM2炎症小体]; experiment: AIM2 inflammasome activation (LPS + poly(dA:dT)), IL-1β ELISA; type: cell-based, mouse; conditions: ML365 5 μM (Fig. 9)
# [13] = system: NLRP3 inflammasome [NLRP3炎症小体]; conditions: mouse BMDM; pharmacological inhibition (or knockout) of TWIK2; Di et al. 2018; cited from earlier work
smiles,measurement,setting,value
"COc1ccccc1C(=O)Nc1cccc(NC(=O)c2cccc(C)c2)c1 [ML365, 2-甲氧基-N-[3-[(3-甲基苯甲酰基)氨基]苯基]苯甲酰胺]",inhibition of TWIK2 channel (in words),"[1]; 10 μM in Fig. 3, muTWIK2 in COS-7 cells",特异性强效抑制剂; also recorded: 强效抑制剂; also recorded: 较强的抑制作用
same,I/I0 (inhibition of TWIK2 channel),"[1]; ML365 10 μM, muTWIK2 in COS-7 cells",0.35±0.02
same,activity at 10 µM,"[1]; ML365 10 μM, muTWIK2 in COS-7 cells, read-out: I/I0 (inhibition of TWIK2 channel)",35 ± 2%
same,selectivity for TWIK2 channel (in words),[1]; compared with TWIK1 and THIK1,特异性选择抑制剂; also recorded: 强效选择性抑制剂; also recorded: 选择性抑制剂
same,IC50,"[1]; inhibition of TWIK2 channel, dose-response curve on muTWIK2, COS-7 cells",4.07 µM
same,inhibition of ATP-induced NLRP3 inflammasome activation by ML365 after TWIK2 knockdown (in words),[2],可阻断 and 极大减弱 and 显著下降 and 可消除
same,inhibition of muTWIK1 channel (in words),[3]; 10 μM,没有抑制作用
same,inhibition of muTWIK1 channel (in words),[3]; 20 μM,也无抑制作用
same,effect on TWIK1 channel function (in words),[3]; concentration not stated,不影响
same,effect on non-canonical inflammasome activation (in words),[4],不抑制 and 无影响
same,TNF-α expression (in words),[5],几乎无影响
same,IL-1β release (in words),[6],显著降低
same,effect on ATP-induced NLRP3 inflammasome activation (in words),"[7]; LPS 5 μg/mL overnight, compound 2 h, ATP 5 mM 1 h",阻断 and 剂量依赖性地抑制 and 可以特异性抑制 and 可特异性地抑制 and 可特异性抑制
same,expression level of caspase-1 in cell supernatant (in words),"[7]; WB, LPS + ATP",有所降低
same,expression level of mature IL-1β in cell supernatant (in words),"[7]; WB, LPS + ATP",有所降低
same,inhibition of THIK1 channel (in words),[8]; 10 μM,几乎无抑制作用
same,inhibition of THIK1 channel (in words),[8]; 20 μM,也无抑制作用
same,effect on THIK1 channel function (in words),[8]; concentration not stated,不影响
same,effect on ATP-induced NLRP3 inflammasome activation (in words),[9]; ATP,也在人THP-1巨噬细胞中得到证实 and 抑制
same,effect on Nigericin-induced NLRP3 inflammasome activation (in words),[9]; Nigericin,也在人THP-1巨噬细胞中得到证实 and 无影响
same,effect on Nigericin-induced NLRP3 inflammasome activation (in words),"[10]; BMDM, even at 10 and 20 μM, Nigericin 10 μM 30 min",没有影响
same,effect on Nigericin-induced NLRP3 inflammasome activation (in words),[10]; concentration not stated,无影响
same,effect on NLRC4 inflammasome activation / induced IL-1β production (in words),[11],不抑制 and 无影响
same,effect on AIM2 inflammasome activation / induced IL-1β production (in words),[12],不抑制 and 无影响
C=C[C@H]1CN2CC[C@H]1C[C@H]2[C@H](O)c1ccnc2ccc(OC)cc12 [奎宁],ASC oligomerisation (in words),[13],抑制caspase-1的激活、ATP诱发的IL-1β的释放以及凋亡相关斑点形成蛋白ASC的寡聚化
same,ATP-evoked IL-1β release (in words),[13],抑制caspase-1的激活、ATP诱发的IL-1β的释放
same,caspase-1 activation (in words),[13],抑制caspase-1的激活
same,effect on NLRP3 inflammasome activation (in words),[13],可以抑制BMDM细胞中NLRP3炎症小体的激活
